Test results from the NIST ThermoML archive (doi:10.1021/je900093h).

Assay: molar heat capacity at saturation pressure
Settings: Liquid, Vacuum adiabatic calorimetry

CCCCCCCCCC(=O)OCC [ethyl decanoate]
Settings | molar heat capacity [J/K/mol]
269.31 K | 391
270.48 K | 391.6
271.01 K | 391.6
271.84 K | 391.9
272.46 K | 392.3
273.19 K | 392.4
274.38 K | 392.9
274.44 K | 393
275.37 K | 393.2
276.42 K | 393.8
276.91 K | 394
277.55 K | 394.1
278.4 K | 394.5
279.45 K | 394.9
279.73 K | 394.9
280.38 K | 395.3
281.91 K | 396
281.98 K | 396.1
282.36 K | 396.2
284.09 K | 396.8
284.34 K | 397.1
284.52 K | 397.2
286.27 K | 397.8
286.32 K | 397.8
287.05 K | 398.3
288.3 K | 398.7
288.45 K | 398.8
289.59 K | 399.4
290.28 K | 399.7
290.63 K | 399.9
292.13 K | 400.5
292.26 K | 400.7
292.81 K | 401
294.23 K | 401.6
294.66 K | 401.8
294.99 K | 401.9
296.21 K | 402.5
297.17 K | 403.1
297.19 K | 403
298.19 K | 403.4
299.72 K | 404.3
300.16 K | 404.4
302.14 K | 405.5
302.25 K | 405.6
304.12 K | 406.5
304.78 K | 406.9
306.09 K | 407.7
307.31 K | 408.3
308.07 K | 408.7
309.83 K | 409.6
310.05 K | 409.6
312.02 K | 410.7
312.36 K | 411
314 K | 411.8
314.88 K | 412.3
315.98 K | 412.8
317.41 K | 413.8
317.96 K | 414
319.93 K | 415
319.94 K | 415
321.92 K | 416.3
322.45 K | 416.4
323.9 K | 417.2
324.96 K | 417.7
325.88 K | 418.2
327.48 K | 419.3
327.86 K | 419.2
329.84 K | 420.3
330 K | 420.6
331.82 K | 421.5
332.51 K | 422
333.8 K | 422.7
335.02 K | 423.5
335.78 K | 424
337.54 K | 424.9
337.76 K | 425.1
339.74 K | 426.2
340.05 K | 426.4
341.72 K | 427.3
342.56 K | 428
343.7 K | 428.7
345.06 K | 429.5
345.68 K | 429.8
347.57 K | 430.9
347.66 K | 431
349.64 K | 432.2
350.07 K | 432.4
351.62 K | 433.3
352.57 K | 433.9
353.61 K | 434.3
355.06 K | 435.2
355.59 K | 435.6
357.56 K | 436.8
357.57 K | 436.8
359.55 K | 438
360.05 K | 438.2
362.54 K | 439.8
365.03 K | 441.4
367.52 K | 443
